Earlier results on one molecule are cited in patent US10098898B1, “Release stable mesalamine dosage forms” (Handa Pharmaceuticals, LLC, priority 2017, dated 2018).

For the data set the following is noted: 1% aqueous solution.

Take `O=P([O-])([O-])O.[Na+].[Na+]` [disodium hydrogen phosphate]: the pH result is given as “about 9.1”.
